Laboratory results reported in US20220256848A1, “NEO-BAVAISOFLAVONE AND COMPOSITIONS THEREOF AND THEIR USE AS PESTICIDES” (priority 2019, published 2022).
Marks after values point to notes of the source that are not given here.

Experiments:
Sclerotinia sclerotiorum = experiment: Microplate hyphae growth assay against Sclerotinia sclerotiorum; type: cell-based
Description: Summary: Diluted purified neo-bavaisoflavone was added to microplate wells and mixed with 50 ul of hyphae suspension and growth of the fungus starting from blended hyphae was monitored by visual inspection.
Background: Sclerotinia sclerotiorum is a fungus of belonging to the Ascomycetes and it is a soil borne pathogen. It is difficult to produce large amounts of spores of Sclerotinia sclerotiorum, that led to decision to use hyphae in this screening rather than spores for inoculation.
2) Add 50 ul of hyphae suspension to the wells of the microplate, mix the spore suspension vigorously by hand and decant amount needed for one plate (5 ml) to keep the hyphae well suspended
(§1) 4) Shake the plate for 10 min at 2000 RPM to mix the neo-bavaisoflavone with the hyphae suspension
7) Insert microplates into a plastic box and put the box in the incubator at 21° C.
1) Screen plate at […]: 4, 7, 14 and 21 days after inoculation
2) Use a lamp for visual assessment of compounds effect on fungal growth overtime
4) Compare the hyphal growth of each well to the hyphal growth of the control plate wells (Wells containing active fungicides or 0.5% DMSO solution)
5) Write the results on a special form: clear well=3 (no growth of hyphae), normal hyphal structure=1 (normal growth), inconclusive=2 (solid structure of unexpected type, or partial cover of the area) […]

Puccinia sorghi [1] = experiment: Puccinia infection of corn seedlings test (growth room); type: in vivo; details: corn plants, five independent growth room experiments
Excerpt: FIGS. 1-5 show effect of neo-bavaisoflavone (NBI) on corn leaf infection by Puccinia sorghi in five independent experiments, determined as leaf % covered by the fungus. *—p-value <0.05, **—p-value is <0.01, *** —p-value is <0.001. Signum—A reference fungicide containing 26.7% w/w boscalid and 6.7% w/w pyraclostrobin (BASF®). Fl, Formulation 1; F2, Formulation 2—see Example 5. ppm—parts per million.
In order to assist the compound dissolution to final working concentration and its spread over the sprayed surface first dry weighed Neo-bavaisoflavone was dissolved in dimethyl-sulfoxide solvent with 1:9 ratio and then brought up to the final volume used for the validation with double distilled water. Before spraying, non-ionic detergent tween 20 was added to final concentration of 0.05%.
In order to assist the compound dissolution to final working concentration and its spread over the sprayed surface first dry weighed Neo-bavaisoflavone was dissolved in absolute ethanol with 1:8 ratio, sonicated for 5 mins and then another part of non-ionic detergent tween 20 was added for formulation finalization. Before spraying, additional amount of 0.05% tween 20 was added (disregarding amount of tween 20 added before).
Protocol name: Puccinia infection of corn seedlings test
General description: inoculation on corn, collection, preparation of spore suspension and material activity study, of Puccinia sorghi.
• Use 8 days old seedlings prepared as explained above • Prepare treatment for spraying—about 1 ml for each plant • Add Tween 20 up to 0.05% to the treatments • Spray treatment on to the leaves till full saturation (use a spray bottle) and let dry in the growth room • Repeat spray on the second day and let dry • On the second day (after about 4 hours from the treatment spray) inoculate plants using the Puccinia spore suspension • Use spraying bottle to spray about 1 ml (till full saturation) of the spore suspension on to the leaves of 9 days old corn seedlings • Put the pots with the inoculated seedlings in a dark moist chamber with heated water at the bottom. […]

Phytophthora infestans = type: cell-based; details: activity grade x repeats /12 x100
Pseudomonas syringae = experiment: Microplate bacterial growth assay against Pseudomonas syringae; type: cell-based; details: grade x repeats x days of activity /252 x100
Description: Summary: Diluted purified neo-bavaisoflavone was added to microplate wells and mixed with […] of frozen bacteria suspension and growth of the bacteria was monitored by visual inspection.
Background: Pseudomonas is a rod-shaped Gram-negative bacterium. Frozen bacteria stock of 60% glycerol was used as an inoculum for the screening experiment.
1) Take a plate with Neo-bavaisoflavone (10 ul) from the −20° C. freezer and thaw it on the bench for at least 20 min
2) Add 80 ul of bacteria suspension with growth medium to each well of the microplate using a multi-pipette
4) Shake the plate for 10 min at 2000 RPM to mix the Neo-bavaisoflavone with the bacteria suspension
6) Insert the plates to a plastic box with cover and put the box in the incubator at 28° C.
1) Screen the microplate at 5 dates: 3, 5, 7, 14 and 21 days after inoculation
2) Use a lamp to visually evaluate the bacterial growth
3) Prepare plates for screening: shake plate at 2000 RPM for 2 min to suspend the bacteria and then centrifuge plate at 1000 RCF for a few seconds
5) Compare the transparency of each well to the transparency of the control wells (wells containing control bactericide or 0.5% DMSO solution)
Write the results on a special form: clear=3 (no growth of bacteria), turbid=1(normal bacterial growth), inconclusive=2 (very low turbidity compared to growth in 0.5% DMSO solution) […]

Spodoptera litoralis = experiment: In-vitro screening matrix, Spodoptera litoralis
Excerpt: (§2) The bioactivity values are in % and reflect the potential of eradicating the target pests.

Rhizoctonia solani = experiment: Microplate hyphae growth assay against Rhizoctonia solani; type: cell-based; details: grade x repeats x days of activity /252 x100
Description: Summary: Diluted purified neo-bavaisoflavone was added to microplate wells and mixed with 50 ul of hyphae suspension and growth of the fungus, starting from blended hyphae, was monitored by plate reader and visual inspection.
2) Add 50 ul of hyphae suspension to the wells of the microplate using a multi-pipette, mix the spore suspension vigorously by hand and decant amount needed for one plate (5 ml) to keep the hyphae well suspended
as §1
(§3) 7) Read the plate using the plate reader
(§4) 9) Insert collected plates to a plastic box with cloth cover and put the box in the incubator at 27° C.
1) Screen plate at 3 more dates: 3d, 7d, 14d and 21d following the assay start
2) Calculate the difference of absorbance between each screen and the read at zero time
(§5) 3) Calculate the percentage of growth inhibition of each well at each time point. Use the results of the DMSO treatment of the control plate as 100% growth
as §2
(§6) b. Pseudomonas syringae, Rhizoctonia solani, Fusarium oxysporum, Pythium aphanidermatum—activity grade (1/2/3) X repeats# X days of activity/252 (maximal value 3×4×21=252)*100

Botrytis cinerea = experiment: In-vitro screening against Botrytis cinerea; type: cell-based; details: grade x repeats x days of activity /168 x100
Excerpt: as §2
c. Botrytis cinerea—activity grade (1/2/3) X repeats# X days of activity/168 (maximal value 3×4×14=168)*100

Fusarium oxysporum = experiment: In-vitro screening against Fusarium oxysporum; type: cell-based; details: grade x repeats x days of activity /252 x100
Excerpt: as §2, §6

Pythium aphanidermatum = experiment: Microplate zoospore growth assay against Pythium aphanidermatum; type: cell-based; details: grade x repeats x days of activity /252 x100
Description: Summary: Diluted purified neo-bavaisoflavone was added to microplate wells and mixed with 50 ul of zoospores in PDBC suspension and the growth of the fungus, starting from zoospores, was monitored by plate reader and visual inspection
2) Add 50 ul of zoospore suspension inoculum to the wells of the microplate using a multi-pipette. Mix the spore suspension vigorously by hand and decant amount needed for one plate (5 ml) to keep the zoospores well suspended
as §1, §3, §4
1) Read out the plate at 3 more dates: 3d, 7d, 14d and 21d following the assay start
2) Calculate the difference of absorbance between each readout and the readout at zero time
as §5
4) Prepare a table of the results of hits that were repeated in all 4 repeats. Set a column for each time point.
as §2
b. […]

Puccinia sorghi [2] = type: cell-based
[3] = tested on: Puccinia stritiformis (yellow rust); experiment: Field validation in wheat, yellow rust leaf infection intensity (curative); type: in vivo; details: wheat field experiments
[4] = tested on: Puccinia stritiformis (yellow rust); experiment: Uredospores of yellow rust in pustules on field-treated wheat leaves (experiment 108); type: in vivo
Mizus Persicae = experiment: In-vitro screening matrix, Mizus Persicae
Excerpt: as §2

[5] = tested on: Pectobacterium carotovorum; experiment: In-vitro screening against Pectobacterium carotovorum; type: cell-based; details: grade x repeats x days of activity /84 x100
Excerpt: as §2
d. Pectobacterium carotovorum—activity grade (1/2/3) X repeats# X days of activity/84 (maximal value 3×4×7=[…])*100

Puccinia triticina = Puccinia triticina infected wheat, growth room under controlled temperature; type: in vivo; details: 200 ppm
Excerpt: Mean of 3 independent replicates is presented. ** means that p-value is <0.01. Formulation 1 see “Formulation preparation for in-planta validation” below.
We conducted 3 independent experiments in greenhouse where we estimated neo-bavaisoflavone's (NBI) potential to prevent and control Puccinia triticina in wheat plants (FIG. 6). Each bar in FIG. 6 represents average of four replicates per treatment. Neo-bavaisoflavone controlled the leaf rust with the following efficacies: between 30% to 50% at 200 ppm and between 30% to 40% at 400 ppm. One additional experiment was conducted under controlled temperature in growth room conditions (FIG. 7) where neo-bavaisoflavone controlled the wheat leaf rust with the efficacy up to 40% at 200 ppm.

[6] = Day 0 after field treatment, ±SE, experiment 108
[7] = Day 7 after field treatment, only one case, no replicates

`CC(C)=CCc1cc(-c2coc3cc(O)ccc3c2=O)ccc1O` [Neo-bavaisoflavone] was tested, and the “Relative Activity value (%)” value (Sclerotinia sclerotiorum) was 17%, the “average efficacy in preventing and controlling Puccinia sorghi” value (from here on “average efficacy”) (Puccinia sorghi [1]; 200 ppm) was 87.39% and the “average efficacy” value (Puccinia sorghi [1]; 400 ppm) was 91.94%. For the same molecule, the “average efficacy” value (Puccinia sorghi [1]; 800 ppm) was 94.07%, the “Relative Activity value (%)” value (Phytophthora infestans) was 0% and the “Relative Activity value (%)” value (Pseudomonas syringae) was 100%. For the same molecule, the “Relative Activity value (%)” value (Spodoptera litoralis) was 0%, the “Relative Activity value (%)” value (Rhizoctonia solani) was 75% and the “Relative Activity value (%)” value (Botrytis cinerea) was 0%. The “Relative Activity value (%)” value (Fusarium oxysporum) was 0%, the “Relative Activity value (%)” value (Pythium aphanidermatum) was 75% and the “Relative Activity value (%)” value (Puccinia sorghi [2]) was 75%. The “relative leaf area covered by the fungi” value [3] was “significantly reduced”, the “Collapsed spores (Percent)” value [4, 6] was 36.8 ± 13.03% and the “Number of collapsed spores (No./pustule)” value [4, 6] was 4.8 ± 2.03 No./pustule. The Number of uredospores/pustule [4, 6] was 14.8 ± 3.37 No, the “Collapsed spores (Percent)” value [4, 7] was 1.9% and the “Number of collapsed spores (No./pustule)” value [4, 7] was 0.8 No./pustule. For the same molecule, the Number of uredospores/pustule [4, 7] was 6.5* No, the “Relative Activity value (%)” value (Mizus Persicae) was 0% and the “Relative Activity value (%)” value [5] was 0%. For the same molecule, the “efficacy of wheat leaf rust control” value (Puccinia triticina) was “up to 40%”.
